Results taken from patent US11793849B2, “Method of Chinese herbal medicine extract used for treating multiple diseases caused by drug resistant bacteria infection” (priority 2016, dated 2023).
Like-named read-outs stand apart in the source and are kept apart here.

Assays:
MDRPA = test: Checkerboard assay (combined-use MIC, FIC); assay type: cell-based, Pseudomonas aeruginosa; settings: for FIC, all strains / MIC50 of the antibiotic after combined use / MIC90 of the antibiotic after combined use / reduction of the antibiotic's MIC50 vs single use / reduction of the antibiotic's MIC90 vs single use / share of strains with FIC ≤ 0.5: 20 MDRPAs
Experimental: Test methods of the sensibilization effects of the test product to similar antibiotics: it is operated by referring to a checkerboard assay recommended by NCCLS.
The checkerboard assay is performed in a 96-pore sterile culture plate.
Calculation of a Fractional Inhibitory Concentration (FIC): FIC=S20b combined-use MIC/S20b single-use MIC+antibiotic combined-use MIC/antibiotic single-use MIC. By calculating the FIC, the combined antibacterial interaction between the EA and the antibiotic is evaluated, with synergistic effect for FIC≤0.5, additive effect for 0.5<FIC≤1, indifferent effect for 1<FIC≤2 and antagonistic effect for FIC>2. According to a sterile growth pore, the optimum concentration ratio between the EA and the antibiotic is founded out. At last, the effect of the EA to strengthen the efficacy of the antibiotic is evaluated.

ATCC27853 = test: MIC determination, control strain; assay type: cell-based
[1] = antibiotic with 10% ethanol extract
[2] = antibiotic with 60% ethanol extract
[3] = antibiotic with 95% ethanol extract
[4] = antibiotic with EA (water extract)
[5] = EA=P. clypearia 10% ethanol extract, read-out: MIC (single use)
[6] = EA=P. clypearia water extract, read-out: MIC (single use)
[7] = single use, EA = 60% ethanol extract, read-out: MIC
[8] = single use, EA = 95% ethanol extract, read-out: MIC

CCN1CCN(C(=O)N[C@@H](C(=O)N[C@@H]2C(=O)N3C(C(=O)O)=C(CSc4nnnn4C)CS[C@H]23)c2ccc(O)cc2)C(=O)C1=O [CFP, Cefoperazone]
16 mg/L: combined-use MIC (MDRPA; strain P7, EA (P. clypearia water extract) combined with CFP) | combined-use MIC (MDRPA; strain P15, EA (P. clypearia water extract) combined with CFP)
35%: share of strains with FIC ≤ 0.5 (MDRPA; [1]) | share of strains with FIC ≤ 0.5 (MDRPA; [4])
93.75%: reduction of the antibiotic's MIC50 vs single use (MDRPA; [1]) | reduction of the antibiotic's MIC50 vs single use (MDRPA; [2]) | reduction of the antibiotic's MIC50 vs single use (MDRPA; [3])
0.5 mg/L: MIC50 of the antibiotic after combined use (MDRPA; [4]) | combined-use MIC (MDRPA; strain P8, EA (P. clypearia 10% ethanol extract) combined with CFP) | combined-use MIC (MDRPA; strain P8, EA (P. clypearia water extract) combined with CFP) | combined-use MIC (MDRPA; strain P10, EA (P. clypearia water extract) combined with CFP) | combined-use MIC (MDRPA; strain P12, EA (P. clypearia water extract) combined with CFP) | combined-use MIC (MDRPA; strain P14, EA (P. clypearia water extract) combined with CFP) | combined-use MIC (MDRPA; strain P17, EA (P. clypearia 10% ethanol extract) combined with CFP) | combined-use MIC (MDRPA; strain P17, EA (P. clypearia water extract) combined with CFP) | combined-use MIC (MDRPA; strain P19, EA (P. clypearia 10% ethanol extract) combined with CFP) | combined-use MIC (MDRPA; strain P19, EA (P. clypearia water extract) combined with CFP) | combined-use MIC (MDRPA; strain P20, EA (P. clypearia water extract) combined with CFP)
0.25 mg/L: combined-use MIC (MDRPA; strain P14, EA (P. clypearia 10% ethanol extract) combined with CFP)
1 mg/L: combined-use MIC (MDRPA; strain P20, EA (P. clypearia 10% ethanol extract) combined with CFP)
40%: share of strains with FIC ≤ 0.5 (MDRPA; [3])
≤ 2: FIC, all strains (MDRPA; [1]) | FIC, all strains (MDRPA; [2]) | FIC, all strains (MDRPA; [3]) | FIC, all strains (MDRPA; [4])
20%: share of strains with FIC ≤ 0.5 (MDRPA; [2])
32 mg/L: combined-use MIC (MDRPA; strain P1, EA (P. clypearia 10% ethanol extract) combined with CFP) | combined-use MIC (MDRPA; strain P1, EA (P. clypearia water extract) combined with CFP) | combined-use MIC (MDRPA; strain P9, EA (P. clypearia 10% ethanol extract) combined with CFP) | combined-use MIC (MDRPA; strain P9, EA (P. clypearia water extract) combined with CFP) | combined-use MIC (MDRPA; strain P13, EA (P. clypearia 10% ethanol extract) combined with CFP) | combined-use MIC (MDRPA; strain P13, EA (P. clypearia water extract) combined with CFP)
99.2%: reduction of the antibiotic's MIC50 vs single use (MDRPA; [4])
256 mg/L: MIC90 of the antibiotic after combined use (MDRPA; [1]) | MIC90 of the antibiotic after combined use (MDRPA; [2]) | MIC90 of the antibiotic after combined use (MDRPA; [4]) | combined-use MIC (MDRPA; strain P5, EA (P. clypearia 10% ethanol extract) combined with CFP) | combined-use MIC (MDRPA; strain P5, EA (P. clypearia water extract) combined with CFP) | combined-use MIC (MDRPA; strain P6, EA (P. clypearia 10% ethanol extract) combined with CFP) | combined-use MIC (MDRPA; strain P6, EA (P. clypearia water extract) combined with CFP) | combined-use MIC (MDRPA; strain P16, EA (P. clypearia 10% ethanol extract) combined with CFP) | combined-use MIC (MDRPA; strain P16, EA (P. clypearia water extract) combined with CFP)
4 mg/L: MIC50 of the antibiotic after combined use (MDRPA; [1]) | MIC50 of the antibiotic after combined use (MDRPA; [2]) | MIC50 of the antibiotic after combined use (MDRPA; [3]) | combined-use MIC (MDRPA; strain P4, EA (P. clypearia 10% ethanol extract) combined with CFP) | combined-use MIC (MDRPA; strain P4, EA (P. clypearia water extract) combined with CFP) | combined-use MIC (MDRPA; strain P11, EA (P. clypearia 10% ethanol extract) combined with CFP) | combined-use MIC (MDRPA; strain P11, EA (P. clypearia water extract) combined with CFP)
75%: reduction of the antibiotic's MIC90 vs single use (MDRPA; [3])
8 mg/L: combined-use MIC (MDRPA; strain P7, EA (P. clypearia 10% ethanol extract) combined with CFP) | combined-use MIC (MDRPA; strain P15, EA (P. clypearia 10% ethanol extract) combined with CFP) | MIC (ATCC27853; [5]) | MIC (ATCC27853; [6]) | MIC (ATCC27853; [7]) | MIC (ATCC27853; [8])
50%: reduction of the antibiotic's MIC90 vs single use (MDRPA; [1]) | reduction of the antibiotic's MIC90 vs single use (MDRPA; [2]) | reduction of the antibiotic's MIC90 vs single use (MDRPA; [4])
128 mg/L: MIC90 of the antibiotic after combined use (MDRPA; [3]) | combined-use MIC (MDRPA; strain P2, EA (P. clypearia 10% ethanol extract) combined with CFP) | combined-use MIC (MDRPA; strain P2, EA (P. clypearia water extract) combined with CFP) | combined-use MIC (MDRPA; strain P18, EA (P. clypearia 10% ethanol extract) combined with CFP) | combined-use MIC (MDRPA; strain P18, EA (P. clypearia water extract) combined with CFP)
2 mg/L: combined-use MIC (MDRPA; strain P3, EA (P. clypearia 10% ethanol extract) combined with CFP) | combined-use MIC (MDRPA; strain P3, EA (P. clypearia water extract) combined with CFP) | combined-use MIC (MDRPA; strain P10, EA (P. clypearia 10% ethanol extract) combined with CFP) | combined-use MIC (MDRPA; strain P12, EA (P. clypearia 10% ethanol extract) combined with CFP)

NCC[C@H](O)C(=O)N[C@@H]1C[C@H](N)[C@@H](O[C@H]2O[C@H](CN)[C@@H](O)[C@H](O)[C@H]2O)[C@H](O)[C@H]1O[C@H]1O[C@H](CO)[C@@H](O)[C@H](N)[C@H]1O [AMK, Amikacin]
20%: share of strains with FIC ≤ 0.5 (MDRPA; [2])
1 mg/L: combined-use MIC (MDRPA; strain P3, EA (P. clypearia water extract) combined with AMK) | combined-use MIC (MDRPA; strain P10, EA (P. clypearia water extract) combined with AMK) | combined-use MIC (MDRPA; strain P20, EA (P. clypearia water extract) combined with AMK)
64 mg/L: combined-use MIC (MDRPA; strain P6, EA (P. clypearia water extract) combined with AMK)
0.0625 mg/L: MIC50 of the antibiotic after combined use (MDRPA; [1]) | MIC50 of the antibiotic after combined use (MDRPA; [2]) | MIC50 of the antibiotic after combined use (MDRPA; [4]) | combined-use MIC (MDRPA; strain P1, EA (P. clypearia water extract) combined with AMK) | combined-use MIC (MDRPA; strain P2, EA (P. clypearia water extract) combined with AMK) | combined-use MIC (MDRPA; strain P5, EA (P. clypearia water extract) combined with AMK) | combined-use MIC (MDRPA; strain P7, EA (P. clypearia water extract) combined with AMK) | combined-use MIC (MDRPA; strain P9, EA (P. clypearia water extract) combined with AMK) | combined-use MIC (MDRPA; strain P13, EA (P. clypearia water extract) combined with AMK) | combined-use MIC (MDRPA; strain P14, EA (P. clypearia water extract) combined with AMK) | combined-use MIC (MDRPA; strain P15, EA (P. clypearia water extract) combined with AMK) | combined-use MIC (MDRPA; strain P16, EA (P. clypearia water extract) combined with AMK) | combined-use MIC (MDRPA; strain P17, EA (P. clypearia water extract) combined with AMK) | combined-use MIC (MDRPA; strain P19, EA (P. clypearia water extract) combined with AMK)
40%: share of strains with FIC ≤ 0.5 (MDRPA; [3])
35%: share of strains with FIC ≤ 0.5 (MDRPA; [4])
≤ 2: FIC, all strains (MDRPA; [1]) | FIC, all strains (MDRPA; [2]) | FIC, all strains (MDRPA; [3]) | FIC, all strains (MDRPA; [4])
30%: share of strains with FIC ≤ 0.5 (MDRPA; [1])
87.5%: reduction of the antibiotic's MIC90 vs single use (MDRPA; [1]) | reduction of the antibiotic's MIC50 vs single use (MDRPA; [3]) | reduction of the antibiotic's MIC90 vs single use (MDRPA; [3])
2 mg/L: MIC90 of the antibiotic after combined use (MDRPA; [2]) | MIC90 of the antibiotic after combined use (MDRPA; [4]) | MIC (ATCC27853; [5]) | MIC (ATCC27853; [6]) | MIC (ATCC27853; [7]) | MIC (ATCC27853; [8])
93.75%: reduction of the antibiotic's MIC50 vs single use (MDRPA; [1]) | reduction of the antibiotic's MIC50 vs single use (MDRPA; [2]) | reduction of the antibiotic's MIC90 vs single use (MDRPA; [2]) | reduction of the antibiotic's MIC50 vs single use (MDRPA; [4]) | reduction of the antibiotic's MIC90 vs single use (MDRPA; [4])
4 mg/L: MIC90 of the antibiotic after combined use (MDRPA; [1]) | MIC90 of the antibiotic after combined use (MDRPA; [3]) | combined-use MIC (MDRPA; strain P18, EA (P. clypearia water extract) combined with AMK)
8 mg/L: combined-use MIC (MDRPA; strain P12, EA (P. clypearia water extract) combined with AMK)
0.12 mg/L: MIC50 of the antibiotic after combined use (MDRPA; [3])
0.5 mg/L: combined-use MIC (MDRPA; strain P4, EA (P. clypearia water extract) combined with AMK) | combined-use MIC (MDRPA; strain P8, EA (P. clypearia water extract) combined with AMK) | combined-use MIC (MDRPA; strain P11, EA (P. clypearia water extract) combined with AMK)
